Reference: patent publication US20050107386A1, “Methods of treating diseases and disorders by targeting multiple kinases” (priority 2003, published 2005)

Columns and labels:
Assay type in all cases: biochemical
SGK(h) = target: T1, SGK(h) (Homo sapiens, UniProt O00141); assay: SGK(h) kinase assay; settings: 3 μM; percent of control kinase activity
T1 sequence (O00141 1-431): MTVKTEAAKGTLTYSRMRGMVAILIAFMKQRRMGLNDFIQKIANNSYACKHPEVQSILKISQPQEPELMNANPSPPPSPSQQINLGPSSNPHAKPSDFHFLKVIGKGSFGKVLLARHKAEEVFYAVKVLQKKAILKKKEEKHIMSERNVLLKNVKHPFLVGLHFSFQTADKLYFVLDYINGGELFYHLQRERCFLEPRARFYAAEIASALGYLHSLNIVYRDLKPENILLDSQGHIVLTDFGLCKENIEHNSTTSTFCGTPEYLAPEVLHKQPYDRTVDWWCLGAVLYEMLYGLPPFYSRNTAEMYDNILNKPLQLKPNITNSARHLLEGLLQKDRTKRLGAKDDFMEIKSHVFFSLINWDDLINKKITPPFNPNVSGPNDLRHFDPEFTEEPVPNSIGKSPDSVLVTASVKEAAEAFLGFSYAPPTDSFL
Procedure: (§1) Six compounds (presumptive single agents) were tested against a panel of 50 kinases. The results are presented in Table 2; numbers for each kinase indicate the percent of control kinase activity in the presence of a 3μM concentration of the indicated agent.
(§2) Agents that target two or more different kinases are useful in the methods of the invention as described elsewhere herein. Such compounds may be identified, and their effect on certain kinases may be identified, using the assays briefly described below in Examples 4-83. Each of these assays was carried out as described in Davies et al., Biochem. J., 351:95-105 (2000). All assays were carried out at 10 μM ATP unless otherwise noted.
In a final reaction volume of 25 μl, SGK(h) (5-10 mU) is incubated with 8 mM MOPS pH 7.0, 0.2 mM EDTA, 30 μM […] (SEQ ID NO:2), 10 mM MgAcetate and [γ-^33P-ATP] (specific activity approx. 500 cpm/pmol, concentration as required). The reaction is initiated by the addition of Mg^2+[γ-^33P-ATP]. After incubation for 40 minutes at room temperature, the reaction is stopped by the addition of 5 μl of a 3% phosphoric acid solution. 10 μl of the reaction is then spotted onto a P30 filtermat and washed three times for 5 minutes in 75 mM phosphoric acid and once in methanol prior to drying and scintillation counting.

PDGFRβ(h) = PDGFRβ(h) (Homo sapiens, UniProt P09619); assay: PDGFRβ(h) kinase assay; settings: 3 μM; percent of control kinase activity
Procedure: as §1, §2
(§3) In a final reaction volume of 25 μl, PDGFRβ (h) (5-10 mU) is incubated with 8 mM MOPS pH 7.0, 0.2 mM EDTA, 0.1 mg/ml poly(Glu, Tyr) 4:1, 10 mM MnCl2, 10 mM MgAcetate and [γ-^33P-ATP] (specific activity approx. 500 cpm/pmol, concentration as required). The reaction is initiated by the addition of Mg^2+ [γ-^33P-ATP]. After incubation for 40 minutes at room temperature, the reaction is stopped by the addition of 5 μl of a 3% phosphoric acid solution. 10 μl of the reaction is then spotted onto a Filtermat A and washed three times for 5 minutes in 75 mM phosphoric acid and once in methanol prior to drying and scintillation counting.

MEK1(h) = MEK1(h) (Homo sapiens, UniProt Q02750); assay: MEK1(h) kinase assay; settings: for Inhibitory activity (% of control), MEK1(h): 3 μM, percent of control kinase activity
Procedure: as §1, §2
The reaction is initiated by the addition of the MgATP. After incubation for 40 minutes at room temperature, 5 μl of this incubation mix is used to initiate a MAPK2 (m) assay, which is described on […].

Bmx(h) = target: T2, Bmx(h) (Homo sapiens, UniProt P51813); assay: Bmx(h) kinase assay; settings: 3 μM; percent of control kinase activity
T2 sequence (P51813 1-675): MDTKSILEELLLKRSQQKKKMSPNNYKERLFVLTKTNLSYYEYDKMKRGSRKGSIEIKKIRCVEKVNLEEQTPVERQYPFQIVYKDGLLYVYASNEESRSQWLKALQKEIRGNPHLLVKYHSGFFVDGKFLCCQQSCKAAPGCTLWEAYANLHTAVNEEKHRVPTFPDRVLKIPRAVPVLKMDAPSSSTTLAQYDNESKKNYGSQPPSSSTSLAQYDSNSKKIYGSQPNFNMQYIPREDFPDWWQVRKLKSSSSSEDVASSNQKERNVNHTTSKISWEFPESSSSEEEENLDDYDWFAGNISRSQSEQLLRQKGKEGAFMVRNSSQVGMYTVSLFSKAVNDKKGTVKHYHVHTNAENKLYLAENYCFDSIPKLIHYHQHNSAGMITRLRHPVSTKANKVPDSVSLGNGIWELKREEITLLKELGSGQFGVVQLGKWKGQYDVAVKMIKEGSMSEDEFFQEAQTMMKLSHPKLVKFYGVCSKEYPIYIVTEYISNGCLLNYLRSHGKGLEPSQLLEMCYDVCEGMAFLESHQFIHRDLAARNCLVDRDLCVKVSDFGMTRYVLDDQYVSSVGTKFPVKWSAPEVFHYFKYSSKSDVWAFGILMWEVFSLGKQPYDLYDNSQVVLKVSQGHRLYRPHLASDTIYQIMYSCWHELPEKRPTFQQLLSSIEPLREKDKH
Procedure: as §1, §2

CDK2/cyclinA(h) = CDK2/cyclinA(h) (Homo sapiens, UniProt P24941); assay: CDK2/cyclinA(h) kinase assay; settings: for Inhibitory activity (% of control), CDK2/cyclinA(h): 3 μM, percent of control kinase activity
Procedure: as §1, §2
as §3, with “μl, CDK2/cyclinA” for “μl, PDGFRβ”, “mg/ml histone H1,” for “mg/ml poly(Glu, Tyr) 4:1, 10 mM MnCl2,”, “and [γ-^33p-ATP]” for “and [γ-^33P-ATP]”, “a P30 filtermat” for “a Filtermat A”

Chain of PDGFRβ(h) (P09619 33-1106): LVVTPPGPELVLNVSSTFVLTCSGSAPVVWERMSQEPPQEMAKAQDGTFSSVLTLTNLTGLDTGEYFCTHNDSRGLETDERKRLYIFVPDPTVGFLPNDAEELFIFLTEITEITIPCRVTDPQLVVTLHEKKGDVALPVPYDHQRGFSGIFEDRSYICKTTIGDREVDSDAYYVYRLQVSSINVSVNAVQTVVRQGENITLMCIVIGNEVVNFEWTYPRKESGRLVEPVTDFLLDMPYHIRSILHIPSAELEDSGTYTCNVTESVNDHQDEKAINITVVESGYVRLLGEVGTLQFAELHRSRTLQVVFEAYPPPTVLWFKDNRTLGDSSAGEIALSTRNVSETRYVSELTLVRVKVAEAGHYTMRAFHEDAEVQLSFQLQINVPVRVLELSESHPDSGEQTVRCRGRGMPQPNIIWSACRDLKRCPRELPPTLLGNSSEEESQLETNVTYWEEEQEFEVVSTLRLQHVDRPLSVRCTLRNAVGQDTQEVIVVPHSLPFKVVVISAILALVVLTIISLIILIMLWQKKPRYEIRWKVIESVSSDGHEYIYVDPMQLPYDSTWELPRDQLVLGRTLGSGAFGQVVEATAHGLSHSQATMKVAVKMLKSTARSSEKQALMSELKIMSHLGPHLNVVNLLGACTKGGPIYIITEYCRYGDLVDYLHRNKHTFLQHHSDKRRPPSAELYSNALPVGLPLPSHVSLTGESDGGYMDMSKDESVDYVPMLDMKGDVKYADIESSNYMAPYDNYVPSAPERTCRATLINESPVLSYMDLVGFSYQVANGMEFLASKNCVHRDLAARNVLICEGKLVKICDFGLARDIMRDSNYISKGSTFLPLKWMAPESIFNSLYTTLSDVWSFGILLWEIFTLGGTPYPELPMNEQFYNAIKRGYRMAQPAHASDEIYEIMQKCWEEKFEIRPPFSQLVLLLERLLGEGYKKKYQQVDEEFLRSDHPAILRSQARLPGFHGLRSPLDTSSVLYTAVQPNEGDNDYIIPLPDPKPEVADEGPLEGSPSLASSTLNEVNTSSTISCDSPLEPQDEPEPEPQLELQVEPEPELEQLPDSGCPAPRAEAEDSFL
Chain of MEK1(h) (Q02750 whole entry): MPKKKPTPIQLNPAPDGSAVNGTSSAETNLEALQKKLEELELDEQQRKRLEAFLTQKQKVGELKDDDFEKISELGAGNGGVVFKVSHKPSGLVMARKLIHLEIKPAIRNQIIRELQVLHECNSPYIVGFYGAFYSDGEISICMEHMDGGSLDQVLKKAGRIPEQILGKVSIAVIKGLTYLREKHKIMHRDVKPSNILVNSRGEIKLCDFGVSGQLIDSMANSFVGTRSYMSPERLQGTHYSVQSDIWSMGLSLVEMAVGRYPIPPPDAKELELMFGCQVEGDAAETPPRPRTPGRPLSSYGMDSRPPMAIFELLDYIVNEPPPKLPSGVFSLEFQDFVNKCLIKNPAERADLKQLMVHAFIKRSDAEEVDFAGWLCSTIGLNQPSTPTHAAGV

| Compound | Inhibitory activity (% of control), SGK(h) (SGK(h)) | Inhibitory activity (% of control), PDGFRβ(h) (PDGFRβ(h)) | Inhibitory activity (% of control), MEK1(h) (MEK1(h)) | Inhibitory activity (% of control), Bmx(h) (Bmx(h)) | Inhibitory activity (% of control), CDK2/cyclinA(h) (CDK2/cyclinA(h)) | inhibitory activity against MEK1, in words (MEK1(h); summary of Table 2) | inhibitory activity against CDK2, in words (CDK2/cyclinA(h); summary of Table 2) |
| --- | --- | --- | --- | --- | --- | --- | --- |
| COc1ccc2cc(-c3n[nH]c4ccc(-c5n[nH]c(CN6CCOCC6)n5)cc34)ccc2c1 [CC001, 3-(6-Methoxynaphthalen-2-yl)-5-(5-Morpholin-4-Ylmethyl-1H-[1,2,4]Triazol-3-yl)-1H-Indazole] | 56 % of control | 94 % of control | 4 % of control | 74 % of control | 4 % of control | – | – |
| CC(C)(C)Cc1nc(-c2ccc3[nH]nc(-c4ccc5cc(OCc6ccccn6)ccc5c4)c3c2)n[nH]1 [CC004, 5-[5-(2,2-Dimethyl-propyl)-1H-[1,2,4]triazol-3-yl]-3-[6-(pyridine-2-ylmethoxy)-naphthalen-2-yl]-1H-indazole] | 33 % of control | 91 % of control | 11 % of control | 98 % of control | 2 % of control | good inhibitory activity | good inhibitory activity |
| CCN1CCC[C@H]1COc1ccc2cc(-c3n[nH]c4ccc(-c5nc(CC(C)(C)C)n[nH]5)cc34)ccc2c1 [CC005, 2-[((2s)-1-ethylpyrrolidin-2-yl)methoxy]-6-{5-[3-(2,2-Dimethylpropyl)(1H-1,2,4,-triazol-5-yl)](1H-indazol-3-yl)}naphthalene] | 4 % of control | 20 % of control | 2 % of control | 36 % of control | 2 % of control | – | – |
